Converted amounts (≈) assume the structure as drawn.
Columns and labels:
Type in all cases: functional
[1] = Antiinflammatory activity against heat-induced albumin denaturation at […] preincubated for 15 mins before heat induction by UV-vis spectrophotometer analysis
Aspergillus flavus [2] = experiment: Antimicrobial activity against Aspergillus flavus MTCC 873
Aspergillus niger [3] = experiment: Antimicrobial activity against Aspergillus niger MTCC 281
Shigella flexneri [4] = experiment: Antimicrobial activity against Shigella flexneri MTCC 1457
Escherichia coli [5] = experiment: Antimicrobial activity against Escherichia coli MTCC 724
Klebsiella pneumoniae [6] = experiment: Antimicrobial activity against Klebsiella pneumoniae MTCC 3384
Staphylococcus aureus [7] = experiment: Antimicrobial activity against Staphylococcus aureus MTCC 96
Bacillus cereus [8] = experiment: Antimicrobial activity against Bacillus cereus MTCC 8372
Aspergillus niger [9] = experiment: Antimicrobial activity against Aspergillus niger MTCC 281 at 50 ug/ml after 24 hrs by agar disc diffusion method; details: MTCC 281, 24 h, read-out: DIZ
Aspergillus niger [10] = experiment: Antimicrobial activity against Aspergillus niger MTCC 281 at 100 ug/ml after 24 hrs by agar disc diffusion method; details: MTCC 281, 24 h, read-out: DIZ
Aspergillus flavus [11] = experiment: Antimicrobial activity against Aspergillus flavus MTCC 873 at 100 ug/ml after 24 hrs by agar disc diffusion method; details: MTCC 873, 24 h, read-out: DIZ
Aspergillus flavus [12] = experiment: Antimicrobial activity against Aspergillus flavus MTCC 873 at 50 ug/ml after 24 hrs by agar disc diffusion method; details: MTCC 873, 24 h, read-out: DIZ
Shigella flexneri [13] = experiment: Antimicrobial activity against Shigella flexneri MTCC 1457 at 100 ug/ml after 24 hrs by agar disc diffusion method; details: MTCC 1457, 24 h, read-out: DIZ
Shigella flexneri [14] = experiment: Antimicrobial activity against Shigella flexneri MTCC 1457 at 50 ug/ml after 24 hrs by agar disc diffusion method; details: MTCC 1457, 24 h, read-out: DIZ
Klebsiella pneumoniae [15] = experiment: Antimicrobial activity against Klebsiella pneumoniae MTCC 3384 at 100 ug/ml after 24 hrs by agar disc diffusion method; details: MTCC 3384, 24 h, read-out: DIZ
Klebsiella pneumoniae [16] = experiment: Antimicrobial activity against Klebsiella pneumoniae MTCC 3384 at 50 ug/ml after 24 hrs by agar disc diffusion method; details: MTCC 3384, 24 h, read-out: DIZ
Escherichia coli [17] = experiment: Antimicrobial activity against Escherichia coli MTCC 724 at 100 ug/ml after 24 hrs by agar disc diffusion method; details: MTCC 724, 24 h, read-out: DIZ
Escherichia coli [18] = experiment: Antimicrobial activity against Escherichia coli MTCC 724 at 50 ug/ml after 24 hrs by agar disc diffusion method; details: MTCC 724, 24 h, read-out: DIZ
Staphylococcus aureus [19] = experiment: Antimicrobial activity against Staphylococcus aureus MTCC 96 at 100 ug/ml after 24 hrs by agar disc diffusion method; details: MTCC 96, 24 h, read-out: DIZ
Staphylococcus aureus [20] = experiment: Antimicrobial activity against Staphylococcus aureus MTCC 96 at 50 ug/ml after 24 hrs by agar disc diffusion method; details: MTCC 96, 24 h, read-out: DIZ
Bacillus cereus [21] = experiment: Antimicrobial activity against Bacillus cereus MTCC 8372 at 100 ug/ml after 24 hrs by agar disc diffusion method; details: MTCC 8372, 24 h, read-out: DIZ
Bacillus cereus [22] = experiment: Antimicrobial activity against Bacillus cereus MTCC 8372 at 50 ug/ml after 24 hrs by agar disc diffusion method; details: MTCC 8372, 24 h, read-out: DIZ
[23] = Antioxidant activity against ferric chloride-induced lipid peroxidation using egg lecithin at 50 ug/ml after 1 hr
[24] = Antioxidant activity against ferric chloride-induced lipid peroxidation using egg lecithin at 100 ug/ml after 1 hr
[25] = Antioxidant activity against ferric chloride-induced lipid peroxidation using egg lecithin at 10 ug/ml after 1 hr
[26] = Antioxidant activity assessed as reducing power of ferric ion at 50 ug/ml after 20 mins; set-up: scale not given: the % may be the effect or the level left
[27] = Antioxidant activity assessed as reducing power of ferric ion at 100 ug/ml after 20 mins; set-up: scale not given: the % may be the effect or the level left
[28] = Antioxidant activity assessed as reducing power of ferric ion at 10 ug/ml after 20 mins; set-up: scale not given: the % may be the effect or the level left
[29] = system: Radical scavenging activity; experiment: Antioxidant activity assessed as DPPH free radical scavenging activity at 50 ug/ml after 20 mins
[30] = system: Radical scavenging activity; experiment: Antioxidant activity assessed as DPPH free radical scavenging activity at 100 ug/ml after 20 mins
[31] = system: Radical scavenging activity; experiment: Antioxidant activity assessed as DPPH free radical scavenging activity at 10 ug/ml after 20 mins

| Compound | inhibition [1] [%] | MIC (Aspergillus flavus [2]) [µg/mL] | MIC (Aspergillus niger [3]) [µg/mL] | MIC (Shigella flexneri [4]) [µg/mL] | MIC (Escherichia coli [5]) [µg/mL] | MIC (Klebsiella pneumoniae [6]) [µg/mL] | MIC (Staphylococcus aureus [7]) [µg/mL] | MIC (Bacillus cereus [8]) [µg/mL] | zone of inhibition at 50 µg/mL (Aspergillus niger [9]) [mm] | zone of inhibition at 100 µg/mL (Aspergillus niger [10]) [mm] | zone of inhibition at 100 µg/mL (Aspergillus flavus [11]) [mm] | zone of inhibition at 50 µg/mL (Aspergillus flavus [12]) [mm] | zone of inhibition at 100 µg/mL (Shigella flexneri [13]) [mm] | zone of inhibition at 50 µg/mL (Shigella flexneri [14]) [mm] | zone of inhibition at 100 µg/mL (Klebsiella pneumoniae [15]) [mm] | zone of inhibition at 50 µg/mL (Klebsiella pneumoniae [16]) [mm] | zone of inhibition at 100 µg/mL (Escherichia coli [17]) [mm] | zone of inhibition at 50 µg/mL (Escherichia coli [18]) [mm] | zone of inhibition at 100 µg/mL (Staphylococcus aureus [19]) [mm] | zone of inhibition at 50 µg/mL (Staphylococcus aureus [20]) [mm] | further results |
| --- | --- | --- | --- | --- | --- | --- | --- | --- | --- | --- | --- | --- | --- | --- | --- | --- | --- | --- | --- | --- | --- |
| Oc1ccc(C2=NN(c3ccccc3)C(c3noc(-c4ccc(Cl)cc4)n3)C2)cc1 (centres undefined) | 74.6 | 15 (≈ 36 µM) | 10 (≈ 24 µM) | 20 (≈ 48 µM) | 20 (≈ 48 µM) | 15 (≈ 36 µM) | 25 (≈ 60 µM) | 20 (≈ 48 µM) | 12 | 18 | 18 | 10 | 18 | 8 | 12 | 10 | 14 | 8 | 10 | 6 | zone of inhibition at 100 µg/mL (Bacillus cereus [21]): 10 mm; zone of inhibition at 50 µg/mL (Bacillus cereus [22]): 8 mm; inhibition [23]: 61%; inhibition [24]: 80%; inhibition [25]: 40%; Activity [26]: 26%; Activity [27]: 76%; Activity [28]: 14%; Activity [29]: 51%; Activity [30]: 70%; Activity [31]: 30% |
| O=C(O)Cc1ccccc1Nc1c(Cl)cccc1Cl | 84.4 | – | – | – | – | – | – | – | – | – | – | – | – | – | – | – | – | – | – | – | – |
| COc1cc(-c2nc(C3CC(c4ccc(O)cc4)=NN3c3ccccc3)no2)cc(OC)c1OC (centres undefined) | 59.3 | 10 (≈ 21.2 µM) | 5 (≈ 10.6 µM) | 10 (≈ 21.2 µM) | 15 (≈ 31.7 µM) | 10 (≈ 21.2 µM) | 15 (≈ 31.7 µM) | 10 (≈ 21.2 µM) | 18 | 30 | 26 | 14 | 22 | 14 | 18 | 12 | 16 | 10 | 18 | 10 | zone of inhibition at 100 µg/mL (Bacillus cereus [21]): 18 mm; zone of inhibition at 50 µg/mL (Bacillus cereus [22]): 12 mm; inhibition [23]: 62%; inhibition [24]: 87%; inhibition [25]: 42%; Activity [26]: 26%; Activity [27]: 76%; Activity [28]: 16%; Activity [29]: 63%; Activity [30]: 91%; Activity [31]: 34% |
| COc1ccc(-c2nc(C3CC(c4ccc(Cl)cc4)=NN3c3ccccc3)no2)cc1OC (centres undefined) | 53.5 | 10 (≈ 21.7 µM) | 10 (≈ 21.7 µM) | 15 (≈ 32.5 µM) | 20 (≈ 43.4 µM) | 15 (≈ 32.5 µM) | 25 (≈ 54.2 µM) | 20 (≈ 43.4 µM) | 14 | 27 | 21 | 14 | 16 | 10 | 11 | 9 | 12 | 8 | 12 | 6 | zone of inhibition at 100 µg/mL (Bacillus cereus [21]): 14 mm; zone of inhibition at 50 µg/mL (Bacillus cereus [22]): 8 mm; inhibition [23]: 52%; inhibition [24]: 73%; inhibition [25]: 30%; Activity [26]: 29%; Activity [27]: 75%; Activity [28]: 14%; Activity [29]: 59%; Activity [30]: 86%; Activity [31]: 30% |
| COc1ccc(C2=NN(c3ccccc3)C(c3noc(-c4ccccc4OC)n3)C2)cc1 (centres undefined) | 27.1 | 15 (≈ 35.2 µM) | 10 (≈ 23.4 µM) | 25 (≈ 58.6 µM) | 25 (≈ 58.6 µM) | 25 (≈ 58.6 µM) | 35 (≈ 82.1 µM) | 35 (≈ 82.1 µM) | 12 | 22 | 12 | 10 | 10 | 6 | 8 | 7 | 8 | 6 | 8 | 4 | zone of inhibition at 100 µg/mL (Bacillus cereus [21]): 8 mm; zone of inhibition at 50 µg/mL (Bacillus cereus [22]): 4 mm; inhibition [23]: 33%; inhibition [24]: 57%; inhibition [25]: 21%; Activity [26]: 24%; Activity [27]: 65%; Activity [28]: 11%; Activity [29]: 41%; Activity [30]: 53%; Activity [31]: 20% |
| COc1ccc(-c2nc(C3CC(c4ccccc4)=NN3c3ccccc3)no2)cc1OC (centres undefined) | 27.1 | 10 (≈ 23.4 µM) | 10 (≈ 23.4 µM) | 25 (≈ 58.6 µM) | 20 (≈ 46.9 µM) | 20 (≈ 46.9 µM) | 20 (≈ 46.9 µM) | 20 (≈ 46.9 µM) | 12 | 18 | 14 | 10 | 10 | 7 | 14 | 8 | 12 | 8 | 12 | 8 | zone of inhibition at 100 µg/mL (Bacillus cereus [21]): 14 mm; zone of inhibition at 50 µg/mL (Bacillus cereus [22]): 8 mm; inhibition [23]: 52%; inhibition [24]: 71%; inhibition [25]: 14%; Activity [26]: 29%; Activity [27]: 68%; Activity [28]: 12%; Activity [29]: 56%; Activity [30]: 66%; Activity [31]: 26% |
| OC(Cn1cncn1)(Cn1cncn1)c1ccc(F)cc1F [FLUCONAZOLE] | – | 5 (≈ 16.3 µM) | 5 (≈ 16.3 µM) | – | – | – | – | – | 20 | 30 | 28 | 16 | – | – | – | – | – | – | – | – | – |
| Clc1ccc(-c2nc(C3CC(c4ccccc4)=NN3c3ccccc3)no2)cc1 (centres undefined) | 53.7 | 10 (≈ 24.9 µM) | 10 (≈ 24.9 µM) | 25 (≈ 62.4 µM) | 30 (≈ 74.8 µM) | 30 (≈ 74.8 µM) | 20 (≈ 49.9 µM) | 25 (≈ 62.4 µM) | 11 | 20 | 14 | 12 | 10 | 6 | 8 | 5 | 18 | 4 | 10 | 8 | zone of inhibition at 100 µg/mL (Bacillus cereus [21]): 10 mm; zone of inhibition at 50 µg/mL (Bacillus cereus [22]): 6 mm; inhibition [23]: 48%; inhibition [24]: 73%; inhibition [25]: 34%; Activity [26]: 22%; Activity [27]: 65%; Activity [28]: 12%; Activity [29]: 42%; Activity [30]: 67%; Activity [31]: 23% |
| O=C(N[C@H](CO)[C@H](O)c1ccc([N+](=O)[O-])cc1)C(Cl)Cl [CHLORAMPHENICOL] | – | – | – | 10 (≈ 30.9 µM) | 10 (≈ 30.9 µM) | 10 (≈ 30.9 µM) | 10 (≈ 30.9 µM) | 10 (≈ 30.9 µM) | – | – | – | – | 24 | 10 | 20 | 12 | 18 | 10 | 16 | 9 | zone of inhibition at 100 µg/mL (Bacillus cereus [21]): 18 mm; zone of inhibition at 50 µg/mL (Bacillus cereus [22]): 10 mm |
| O=C1O[C@H]([C@@H](O)CO)C(O)=C1O | – | – | – | – | – | – | – | – | – | – | – | – | – | – | – | – | – | – | – | – | Activity [26]: 32%; Activity [27]: 82%; Activity [28]: 14%; Activity [29]: 57%; Activity [30]: 94%; Activity [31]: 32% |

— ChEMBL document CHEMBL2406981, “Novel pyrazoline amidoxime and their 1,2,4-oxadiazole analogues: synthesis and pharmacological screening” (Bioorg Med Chem Lett, 2013)
